According to patent publication US8501241B1, “Treating cancer with a whole, leech saliva extract” (priority 2012, dated 2013):

Tests used:
[1] = tested on: Candida albicans ATCC10231; test: Kirby-Bauer disc diffusion; assay type: cell-based; details: reference antibiotic disc, 100 units/disc
Text: (§1) Experimental procedures include the following steps: • 1.

[2] = tested on: Cryptococcus neoformans ATCC90112; test: Kirby-Bauer disc diffusion; assay type: cell-based; details: reference antibiotic disc, 100 units/disc
Text: as §1

induced-diabetic rats = test: Antihyperglycemic activity: fall in fasting blood glucose in alloxan-induced diabetic rats; assay type: in vivo, rat (Sprague Dawley)
[3] = Mortality, behaviour and acute toxicity signs in injected diabetic rats; assay type: in vivo, rat (Sprague Dawley); details: insulin 20 units/kg b.w

Compound	Zone of inhibition (mm) C. albicans [1] [mm]	Zone of inhibition (mm) C. neoformance [2] [mm]	fasting blood glucose (FBG) (induced-diabetic rats; after two hours of injection)	difference between normal rats and treated diabetic rats (induced-diabetic rats; at either dose)	fasting blood glucose (FBG) (induced-diabetic rats; insulin 10 units/kg b.w, after 8 hours of treatment)	hypoglycemia and mortality [3]
C[C@@H]1[C@H](O)[C@@H](C)/C=C/C=C/CC/C=C/C=C/C=C/C=C/C(O[C@H]2O[C@H](C)[C@@H](O)[C@H](N)[C@@H]2O)CC2O[C@](O)(CC(O)C(O)CCC(O)CC(O)CC(O)CC(=O)O[C@H]1C)CC(O)C2C(=O)O (stereo partly drawn) [Nystatin, nystatin]	10	9				
insulin: insulin from bovine pancreas (≧27 units/mg)			sharp significant decrease (p<0.001)	No significant difference	returned to the diabetic state	hypoglycemic condition in all rats leading to the death of one rat
